Results: US20190060340A1, “NOVEL AMINOGLYCOSIDES AND USES THEREOF IN THE TREATMENT OF GENETIC DISORDERS” (Technion Research & Development Foundation Limited, priority 2007, published 2019)
Converted amounts (≈) assume the structure as drawn. “And” between values parts separate entries of the source, which are not always exact repeats. Identical values can stand only once. Like-named read-outs stand apart in the source and are kept apart here.

What was measured:
[1] = test system: R3X (PCDH15, Usher Syndrome); assay: Dual luciferase in vitro transcription/translation assay; assay type: biochemical, human
From the text: (§1) DNA fragments derived from the subsequent genes, including the tested stop mutation or the corresponding wild-type codon, and four upstream and downstream flanking codons (except for p.R3X constructs, in which there are only two upstream PCDH15-flanking codons) were cloned into p2Luc plasmid between renilla and firefly luciferase genes as described previously. The formed plasmids, as well as the original p2Luc plasmid containing a TGA C nonsense mutation, were transcribed and translated in vitro and the stop codon suppression efficiency was calculated as described previously.
(§2) For the dual luciferase in vitro transcription/translation assay, DNA fragments derived from PCDH15, CFTR, Dystrophin and IDUA cDNAs, including the tested stop mutation or the corresponding wild-type codon, and four upstream and downstream flanking codons (except for p.R3X constructs, in which there are only two upstream PCDH15-flanking codons) were created by annealing the couples of complementary oligonucleotides presented above.
(§3) Fragments were inserted into the SalI and SacI restriction sites of the p2Luc plasmid between renilla and firefly luciferase genes. The afforded plasmids, as well as the original p2Luc plasmid containing a TGA C nonsense mutation, were transcribed and translated using the TNT Reticulocyte Lysate Quick Coupled Transcription/Translation System (Promega™). Each transcription/translation reaction (10 μl, total volume) contained 8 μl TNT T7 Quick Master Mix, 0.2 μl methionine (1 mM), 0.8 μl DNA template (2 μg/μl), 1 μl of either water (blank) or 1 μl solution of increasing concentrations of the tested aminoglycosides in water. Luciferase activity was determined following 90 minutes incubation at 30° C. using the Dual Luciferase Reporter Assay System (Promega™). The total luminescence produced by each one of the proteins was measured separately using the FLx800 multidetection plate reader (Bio-Tek) and the stop codon suppression efficiency was calculated as described previously. The results are averages of at least three independent experiments.

[2] = test system: G542X (CFTR, Cystic Fibrosis); assay: as above; assay type: biochemical, human
From the text: as §1, §2, §3

[3] = test system: W1282X (CFTR, Cystic Fibrosis); assay: as above; assay type: biochemical, human
From the text: as §1, §2, §3

[4] = test system: Q70X (IDUA, Hurler Syndrome); assay: as above; assay type: biochemical, human
From the text: as §1, §2, §3

[5] = test system: R3381X (Dystrophin, Duchenne Muscular Dystrophy); assay: as above; assay type: biochemical, human
From the text: as §1, §2, §3

[6] = test system: W402X (IDUA, Hurler Syndrome); assay: as above; assay type: biochemical, human
From the text: as §1, §2, §3

[7] = test system: R245X (PCDH15, Usher Syndrome); assay: as above; assay type: biochemical, human
From the text: as §1, §2, §3

[8] = test system: R245X nonsense mutation (a premature UGA A stop codon) of the PCDH15 gene; assay: In vitro suppression, pDB reporter plasmid in reticulocyte lysate; assay type: biochemical, human; settings: for Concentration (μM) at which maximal suppression was observed, R245X / suppression level (%), maximum in vitro, R245X: Table 20; for suppression level (%), maximum in vitro, R245X: at concentration of maximal suppression; for difference in suppression of R3X versus R245X: maximal suppression levels
Procedure: Compound 37 was tested for its ability to suppress a nonsense mutation in-vitro, using a reporter construct carrying either R3X nonsense mutation (a premature UGA C stop codon) or R245X nonsense mutation (a premature UGA A stop codon) of the PCDH15 gene, using gentamicin, paromomycin and Compound 3 as standards and following the experimental procedures presented hereinabove.
For the rat-PGM-β-Gal in vitro readthrough system, the pDB series of reporter plasmids harbor the following elements under SP6 promoter control: an open reading frame (ORF) derived from the 5′ end of the rat PGM gene, which encodes a 25-kDa polypeptide; another small ORF, encoding the 10-kDa alpha complementation region of β-galactosidase, and terminated by tandem, in-frame stop codons (UAA UAG); located between the two ORFs is a DNA fragment derived from PCDH15 cDNA, including the tested stop mutation or the corresponding wild-type codon, and six upstream and downstream flanking codons (except for p.R3X constructs, in which there are only two upstream PCDH15-flanking codons). The fragments were created by annealing the following couples of complementary oligonucleotides:
The fragments were inserted into the BamHI and HindIII restriction sites of the pDB read-through construct. Reporter plasmids harboring each of the four nonsense mutations and the corresponding wt alleles were in vitro transcribed and translated using the TNT SP6 Coupled Reticulocyte lysate System (Promega) in the presence of [^35S]-methionine and increasing concentrations of aminoglycosides as described previously. […] The degree of suppression was calculated as the relative proportion of the 35-kDa product out of total reaction products (35-kDa and 25-kDa polypeptides). The results are averages of at least three independent experiments.

Acute toxicity in mice = assay type: in vivo
eukaryotic translation = assay: Inhibition of eukaryotic translation; assay type: biochemical
[9] = Cell toxicity assay (XTT cell proliferation); assay type: cell-based
Procedure: After 1 day the medium was changed to medium without streptomycin and different concentrations of the tested compounds were added. After 48 hours a cell proliferation assay (XTT based colorimetric assay, Biological Industries) was performed, using the 5 hours incubation protocol, according to the manufacturer's instructions. Optical density (OD) was read using an Elisa plate reader. Cell viability was calculated as the ratio between the number of living cells in cultures grown in the presence of the tested compounds, versus the corresponding cell cultures which were grown without the tested compounds.

[10] = test system: UGA C stop codon (p2LUC plasmid) in COS-7 cells; assay: Ex vivo suppression, p2LUC dual luciferase reporter plasmid in COS-7 cells; assay type: cell-based, monkey; settings: 24 hours incubation
Procedure: Recent studies on enhanced production of functional proteins from nonsense codon-containing genes by promoter-activating agents support this presumption. To test this possibility, Compound 3 along with paromomycin and gentamicin, were evaluated for the UGA C stop codon read-through activity in cultured cells using a dual luciferase reporter system.
Suppression of nonsense mutations by Compounds 1-9 was tested ex vivo using a dual luciferase reporter plasmid. The p2LUC plasmid harboring the UGAC mutation was transfected to COS-7 cells with Lipofectamine 2000 (Invitrogen) and addition of tested compounds was performed after 15 hours. Luciferase activity was determined after 24 hours of incubation, using the Dual Luciferase Reporter Assay System (Promega) and stop codon readthrough was calculated as described previously.

| Compound | Maximum in vitro suppression (%) R3X [1] [%] | Maximum in vitro suppression (%) G542X [2] [%] | Maximum in vitro suppression (%) W1282X [3] [%] | Maximum in vitro suppression (%) Q70X [4] [%] | Maximum in vitro suppression (%) R3381X [5] [%] | Maximum in vitro suppression (%) W402X [6] [%] | Maximum in vitro suppression (%) R245X [7] [%] | Concentration (μM) at which maximal suppression was observed, R245X [8] [µM] | suppression level (%), maximum in vitro, R245X [8] | difference in suppression of R3X versus R245X [8] [fold] | IC50 (eukaryotic translation) [µM] | fold more efficient inhibition of eukaryotic translation than gentamicin and paromomycin (eukaryotic translation) | ex-vivo suppression of nonsense mutation (read-through activity), FIG. 4 [10] | also measured |
| --- | --- | --- | --- | --- | --- | --- | --- | --- | --- | --- | --- | --- | --- | --- |
| NCC[C@H](O)C(=O)N[C@@H]1CC(N)[C@@H](O[C@H]2OC(CO)[C@@H](O)C(O)C2N)C(O[C@@H]2O[C@H](CN)C(O)C2O)C1O (stereo partly shown) [Compound 37] | 29.2 ± 3.1 | 5.1 ± 0.6 | 3.3 ± 0.4 | 10.6 ± 1.1 | 7.8 ± 0.8 | 21.9 ± 4.4 | 4.9 ± 0.5 | 153 | 40.5% and 40.5 ± 7.5% | 1.8 | 24 | about 3 fold | – | fold better suppression of R245X than Compound 3 ([8]; maximal suppression level): 6.5 fold; fold better suppression of R245X than gentamicin ([8]; maximal suppression level): 3.6 fold; fold better suppression of R245X than paromomycin ([8]; maximal suppression level): 4.5 fold; acute toxicity in mice in comparison to paromomycin and gentamicin (Acute toxicity in mice): significantly reduced |
| NC[C@H]1O[C@@H](O[C@@H]2[C@@H](O)[C@H](N)C[C@H](N)[C@H]2O[C@H]2O[C@H](CO)[C@@H](O)[C@H](O)[C@H]2N)[C@H](O)[C@@H]1O [Compound 3] | 2.9 ± 0.9 | 0.63 ± 0.29 | 1.6 ± 0.4 | 2.0 ± 0.4 | 1.8 ± 0.2 | 3.2 ± 0.4 | 0.98 ± 0.30 | 178 | 6.0 ± 0.3% | 3.5 | 31 | about 2 fold | superior to that of paromomycin and gentamicin at all the tested concentrations | CC50 at 48 h ([9]; dog, MDCK cells, 48 hours, read-out: LC50 MDCK): 7530 ± 1210 µg/mL (≈ 16.6 mM); CC50 at 48 h ([9]; human, HEK-293 cells, 48 hours, read-out: LC50 HEK293): 4820 ± 920 µg/mL (≈ 10.6 mM); CC50 at 48 h ([9]; monkey, COS-7 cells, 48 hours, read-out: LC50 COS-7): 7030 ± 1850 µg/mL (≈ 15.5 mM) |
| gentamicin [reference compound] | 14.0 ± 1.0 | 2.8 ± 0.7 | 1.4 ± 0.5 | 1.5 ± 0.4 | 3.5 ± 0.7 | 7.2 ± 0.5 | 0.90 ± 0.28 | 61 | 11 ± 1.5% | 4.5 | 60 | – | less efficient than either paromomycin or Compound 3 | – |
| NC[C@@H]1O[C@H](O[C@H]2[C@@H](O)[C@H](O[C@@H]3[C@@H](O)[C@H](N)C[C@H](N)[C@H]3O[C@H]3O[C@H](CO)[C@@H](O)[C@H](O)[C@H]3N)O[C@@H]2CO)[C@H](N)[C@@H](O)[C@@H]1O [paromomycin, reference compound] | 9.4 ± 0.5 | 0.74 ± 0.08 | 1.2 ± 0.2 | 2.2 ± 0.5 | 2.4 ± 0.3 | 3.3 ± 0.1 | 0.71 ± 0.32 | 42 | 9 ± 3% | 5.4 | 58 | – | – | CC50 at 48 h ([9]; dog): 1000 ± 60 µg/mL (≈ 1.62 mM); CC50 at 48 h ([9]; human): 770 ± 140 µg/mL (≈ 1.25 mM); CC50 at 48 h ([9]; monkey): 900 ± 100 µg/mL (≈ 1.46 mM) |
